In PMC6556873, “Rapid Covalent-Probe Discovery by Electrophile-Fragment Screening” (Journal of the American Chemical Society, 2019):
Where two headings read alike, the source gives them in different places.

What was measured:
in vitro [1] = test: in vitro; design: species or system HB2, HEK293; details: human, ccd841 cells
in vitro [2] = test: in vitro; design: species or system HB2, CCD841; details: human, hek293 cells
in vitro [3] = test: in vitro; design: species or system CCD841, HEK293; details: human, hb2 cells, read-out: HB-2 Cells Viability (%)
BSA = target: T1, BSA (Bos taurus, UniProt P02769); design: Intact protein LC/MS covalent labelling, fragments in pools of five, 200 uM each, 4 °C; details: 24 h, 4 °C, pool of five; 200 µM; covalent
T1 construct: gene ALB
Experimental: (§1) Incubations were performed at 200 μM for each compound and 2 μM of protein (10 μM for BSA) for 24 h at 4 °C with moderate shaking. Incubation buffers varied among proteins (PBS pH 7.4 for QSOX1 and BSA; 10 mM HEPES pH 7.5, 0.3 M NaCl, 0.5 mM TCEP for PCAF, UPS8, and NUDT7; […]; 10 mM Na2HPO4 pH 7.5 100 mM NaCl 5 mM β-mercaptoethanol for NV3CP; 20 mM Na phosphate pH 7.5 for NNMT; […]. The reaction was stopped by quenching with formic acid, 0.4% final concentration. Each protein was incubated with the electrophilic library in pools of five compounds per well. The pool’s composition maximized the difference in mass between fragments in the same well. Incubations were performed with each fragment at 200 μM, for 24 h at 4 °C, to allow the screening of proteins that are not stable for long time periods at higher temperatures. Following incubation, we used intact protein [compound left out] chromatography/mass spectrometry (LC/MS) to identify the fragments and quantify their labeling (Figure 3A). […] There was good agreement between the percent of labeling of NUDT7 by 100 random individual compounds and that obtained in pools of five (R^2=0.78; Figure S6 and Data set 2 in the Supporting Information).

OTUB2 (OTUB2A) = target: T2, OTUB2 (OTUB2A) (Homo sapiens, UniProt Q96DC9); design: Intact protein LC/MS covalent labelling, fragments in pools of five, 200 uM each, 4 °C; details: 24 h, 4 °C, pool of five; 200 µM; covalent
T2 construct: full length residues 1-234, E. coli BL21(DE3)-R3, His tag removed by TEV, construct 27312 Da
T2 sequence (Q96DC9 1-234): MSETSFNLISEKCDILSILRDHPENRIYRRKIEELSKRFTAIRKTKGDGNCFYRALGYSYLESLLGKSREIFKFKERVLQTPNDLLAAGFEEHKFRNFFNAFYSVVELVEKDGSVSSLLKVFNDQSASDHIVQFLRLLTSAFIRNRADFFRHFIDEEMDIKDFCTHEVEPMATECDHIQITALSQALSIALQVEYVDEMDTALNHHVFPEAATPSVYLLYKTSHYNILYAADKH
Experimental: as §1

PCAF = target: T3, PCAF (Homo sapiens, UniProt Q92831); design: Intact protein LC/MS covalent labelling, fragments in pools of five, 200 uM each, 4 °C; details: 24 h, 4 °C, pool of five; 200 µM; covalent
T3 construct: gene KAT2B
Experimental: as §1

NUDT7 = target: T4, NUDT7 (Homo sapiens, UniProt P0C024); design: Intact protein LC/MS covalent labelling, fragments in pools of five, 200 uM each, 4 °C; details: 24 h, 4 °C, pool of five; 200 µM; covalent
T4 construct: residues 14-235, E. coli, pNIC28-Bsa4, N-terminal His6 tag removed by TEV, construct 26672 Da
Experimental: as §1

T3 sequence (Q92831 whole entry, the tested form may be a part): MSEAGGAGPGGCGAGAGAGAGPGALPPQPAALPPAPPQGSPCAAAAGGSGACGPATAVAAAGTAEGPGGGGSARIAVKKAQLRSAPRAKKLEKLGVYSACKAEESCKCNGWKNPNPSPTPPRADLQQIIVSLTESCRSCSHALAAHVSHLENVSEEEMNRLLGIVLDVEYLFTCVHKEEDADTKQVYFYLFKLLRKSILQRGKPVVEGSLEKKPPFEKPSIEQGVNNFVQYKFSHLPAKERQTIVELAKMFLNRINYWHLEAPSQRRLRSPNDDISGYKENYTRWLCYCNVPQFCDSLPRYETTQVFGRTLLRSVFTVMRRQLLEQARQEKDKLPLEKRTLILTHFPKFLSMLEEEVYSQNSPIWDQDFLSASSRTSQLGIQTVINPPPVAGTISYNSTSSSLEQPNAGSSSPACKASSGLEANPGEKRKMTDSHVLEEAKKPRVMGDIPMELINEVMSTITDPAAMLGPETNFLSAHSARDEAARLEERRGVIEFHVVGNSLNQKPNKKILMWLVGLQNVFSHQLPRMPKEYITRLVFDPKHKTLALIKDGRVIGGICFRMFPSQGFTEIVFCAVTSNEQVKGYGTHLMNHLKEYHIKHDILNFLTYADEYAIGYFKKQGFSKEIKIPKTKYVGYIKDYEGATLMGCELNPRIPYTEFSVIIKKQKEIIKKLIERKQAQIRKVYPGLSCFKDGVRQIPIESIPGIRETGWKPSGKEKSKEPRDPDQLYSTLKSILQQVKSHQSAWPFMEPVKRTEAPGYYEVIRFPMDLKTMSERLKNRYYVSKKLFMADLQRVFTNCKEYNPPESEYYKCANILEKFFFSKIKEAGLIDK
T4 sequence (P0C024 14-235): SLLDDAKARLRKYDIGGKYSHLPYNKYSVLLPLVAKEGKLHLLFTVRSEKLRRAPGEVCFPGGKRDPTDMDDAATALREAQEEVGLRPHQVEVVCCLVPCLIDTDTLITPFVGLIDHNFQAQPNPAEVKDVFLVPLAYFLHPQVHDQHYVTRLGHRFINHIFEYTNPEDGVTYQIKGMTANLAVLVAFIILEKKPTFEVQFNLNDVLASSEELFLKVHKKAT
T1 sequence (P02769 whole entry, the tested form may be a part): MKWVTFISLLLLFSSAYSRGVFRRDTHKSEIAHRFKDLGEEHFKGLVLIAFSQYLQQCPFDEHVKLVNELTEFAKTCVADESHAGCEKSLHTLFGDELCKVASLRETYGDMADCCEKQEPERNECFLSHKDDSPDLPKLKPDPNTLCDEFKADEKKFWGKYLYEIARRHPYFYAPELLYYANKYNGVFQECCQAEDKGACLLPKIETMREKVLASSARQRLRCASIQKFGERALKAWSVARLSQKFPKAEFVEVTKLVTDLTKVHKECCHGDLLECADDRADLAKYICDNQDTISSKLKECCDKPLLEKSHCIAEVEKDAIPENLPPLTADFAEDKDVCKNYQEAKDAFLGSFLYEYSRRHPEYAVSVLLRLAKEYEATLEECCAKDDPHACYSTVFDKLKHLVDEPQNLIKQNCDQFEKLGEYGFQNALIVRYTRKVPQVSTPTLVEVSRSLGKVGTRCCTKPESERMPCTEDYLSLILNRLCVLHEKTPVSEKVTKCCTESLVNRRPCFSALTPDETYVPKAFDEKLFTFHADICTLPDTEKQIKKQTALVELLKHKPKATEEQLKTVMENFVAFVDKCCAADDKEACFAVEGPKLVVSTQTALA

SMILES	BSA (BSA)	OTUB2 (OTUB2 (OTUB2A))	PCAF (PCAF)	NUDT7 (NUDT7)	viability at 48 h, 10 µM (in vitro [1]) [%]	viability at 48 h, 10 µM (in vitro [2]) [%]	viability at 48 h, 10 µM (in vitro [3]) [%]
Cc1nc(NC(=O)CCl)sc1C [PCM-0102124]	0	0	0	–	66.1	32.2	47.2
O=C(CCl)N1N=C(c2ccco2)CC1c1cccs1 (centres unmarked) [PCM-0102182]	0	0	0	–	18.2	2	14.9
Cc1cc(NC(=O)CCl)n(C)n1 [PCM-0102383]	0	–	0	0	54.4	31.2	64.5
O=C(CCl)N1CCc2cc([N+](=O)[O-])ccc21 [PCM-0102403]	0	–	0	0	51.4	50.4	21.2
Cc1ccc(NC(=O)CCl)c(Cl)c1 [PCM-0102408]	0	–	0	0.18	78.1	38.1	35.9
O=C(CCl)Nc1nncs1 [PCM-0102427]	0	0	0	–	91	99.2	89.6
CC1CCCCN1C(=O)CCl (centres unmarked) [PCM-0102434]	0	–	0	0	82.7	71.3	89.1
C=CC(=O)NC1c2ccccc2CC12CCOCC2 (centres unmarked) [PCM-0102445]	0	–	0	0	106	111	103
O=C(CCl)N1CCC2CCCCC2C1 (centres unmarked) [PCM-0102474]	0	0	0	–	54.4	15.3	24.3
Cc1cc(SC#N)ccc1NC(=O)CCl [PCM-0102508]	0	0	0	–	19.6	27.8	14.1
C=CC(=O)N1CCC(NC(=O)c2cc(C)on2)CC1 [PCM-0102557]	0	–	0	0	101	83.7	101
C=CC(=O)NCc1cnc(C)s1 [PCM-0102587]	0.24	–	0	0	111	83.2	107
O=C(CCl)N1CCc2[nH]c3ccccc3c2C1 [PCM-0102591]	0	–	0	0.22	61.8	7.5	7.3
C=CC(=O)NC1(c2nc(C)cs2)CCOCC1 [PCM-0102601]	0	–	0	0	102	109	103
C=CC(=O)N1CCCC(c2nc(C(F)(F)F)cn2C)C1 (centres unmarked) [PCM-0102633]	0	–	0	0	118	106	99.9
C=CC(=O)NC1CCN(C(C)=O)Cc2cc(F)ccc21 (centres unmarked) [PCM-0102635]	0	–	0	0	114	91.8	101
C=CC(=O)N1CCn2c(cc3cc(Cl)ccc32)C1 [PCM-0102661]	0.18	–	0	0	109	87.1	81.5

More lines, main results first:

BSA (BSA)	OTUB2 (OTUB2 (OTUB2A))	PCAF (PCAF)	NUDT7 (NUDT7)	SMILES	viability at 48 h, 10 µM (in vitro [1]) [%]	viability at 48 h, 10 µM (in vitro [2]) [%]	viability at 48 h, 10 µM (in vitro [3]) [%]
0	–	0	0	O=C(CCl)NCc1ccc(Cl)cc1 [PCM-0102668]	112	83.7	108
0	–	0	0	C=CC(=O)NC(C)(C)c1noc(C(C)(C)C)n1 [PCM-0102724]	108	113	95.8
0	–	0	0.21	Cc1cc(NC(=O)CCl)ccc1Br [PCM-0102770]	15.6	1.6	2.5
0	–	0	0.1	O=C(CCl)Nc1ccc2c(c1)OC1(CCCC1)O2 [PCM-0102801]	59.7	2.8	8.5
0	–	0	0	C=CC(=O)N1CCn2c(cc3c(Cl)cccc32)C1 [PCM-0102835]	91.6	69.7	83.4
–	0	0	–	C=CC(=O)N=C1N=C2C=CC(I)=CN2Cc2ccccc21 [PCM-0102846]	87.7	76.9	92.6
0.22	–	0	0	CN(C)c1ccc(NC(=O)CCl)cc1.Cl [PCM-0102859]	110	87	105
0	–	0	0	O=C(CCl)NC1CCC(C(F)(F)F)CC1 (centres unmarked) [PCM-0102864]	109	82.7	99.2
0	–	0	0	C=CC(=O)Nc1ccc(C)c(F)c1 [PCM-0102878]	97.9	78.8	102
0	–	0	0.36	O=C(CCl)Nc1ccccc1O [PCM-0102907]	95.4	80.8	106
0	–	0	0	Cc1ccc(C(=O)NNC(=O)CCl)cc1 [PCM-0102924]	123	268	97.6
0	–	0	0	CC(=O)NC1CCCN(C(=O)CCl)C1 (centres unmarked) [PCM-0102934]	90	81.8	100
0	–	0	0.25	O=C(CCl)Nc1nc(-c2ccco2)cs1 [PCM-0102979]	89.7	66	44
0	–	0	0	CC(NC(=O)CCl)C(=O)O (centres unmarked) [PCM-0102990]	115	103	102
0	–	0	0	Cc1ccc(NC(=O)CCl)c(C)c1 [PCM-0103041]	70.5	49.9	75.7
0	–	0	0	C=CC(=O)NC1(C#N)CCOC1 (centres unmarked) [PCM-0103049]	95.7	115	99.3
